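A five-concentration, 48-hour dose response in 96-well plates underlies each endpoint, interpolated linearly between surrounding concentrations. GI50 = concentration required for 50% inhibition of growth.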 Calls of active or inactive are those of the source. Rule as the data show it: active = GI50 up to about 1.1 µM and inactive = higher.
What was measured:
Test in all cases: NCI tumour cell line growth inhibition, 48 h
COLO 205 = system: COLO 205
EKVX = system: EKVX
HCT-116 = system: HCT-116
HL-60 = system: HL-60
KM12 = system: KM12
LOX IMVI = system: LOX IMVI
LXFL 529 = system: LXFL 529
M14 = system: M14
NCI-H460 = system: NCI-H460
OVCAR-3 = system: OVCAR-3
OVCAR-4 = system: OVCAR-4
OVCAR-8 = system: OVCAR-8
RPMI-8226 = system: RPMI-8226
SNB-75 = system: SNB-75
SR = system: SR
UACC-62 = system: UACC-62
BT-549 = system: BT-549
Hs-578T = system: Hs-578T
MCF7 = system: MCF7
T47D = system: T47D

Measured: GI50

Cc1c(C(=O)CC(=O)C(=O)Nc2cccc(C(F)(F)F)c2)[n+]([O-])c2ccccc2[n+]1[O-]
inactive: COLO 205 3.33 µM | EKVX 5.07 µM | HCT-116 3.06 µM | HL-60 3.08 µM | KM12 4.1 µM | LOX IMVI 2.86 µM | LXFL 529 4.02 µM | M14 3.37 µM | NCI-H460 2.97 µM | OVCAR-3 1.66 µM | OVCAR-4 2.42 µM | OVCAR-8 2.45 µM | RPMI-8226 3.07 µM | SNB-75 3.04 µM | SR 2.33 µM | UACC-62 2.76 µM

O=C(/C=C/c1ccco1)N1CCN(Cc2ccccc2)CC1
inactive: EKVX > 100 µM | HCT-116 > 100 µM | HL-60 > 100 µM | KM12 > 100 µM | LOX IMVI > 100 µM | LXFL 529 > 100 µM | M14 > 100 µM | NCI-H460 > 100 µM | OVCAR-3 > 100 µM | OVCAR-4 > 100 µM | OVCAR-8 > 100 µM | RPMI-8226 > 100 µM | SNB-75 > 100 µM | SR > 100 µM | UACC-62 > 100 µM

COc1ccc(C(=C2C(=O)OC(=O)C2=C(C)C)c2ccc(OC)cc2)cc1
inactive: BT-549 70.5 µM | COLO 205 > 100 µM | EKVX 27 µM | HCT-116 > 100 µM | HL-60 31.2 µM | Hs-578T 95.5 µM | KM12 29.2 µM | LOX IMVI 34.4 µM | M14 85.1 µM | MCF7 > 100 µM | NCI-H460 > 100 µM | OVCAR-3 22 µM | OVCAR-4 29.6 µM | OVCAR-8 47.4 µM | RPMI-8226 28.8 µM | SNB-75 > 100 µM | SR 38.5 µM | T47D > 100 µM | UACC-62 > 100 µM

CC1=NN(c2nc(N)nc(/C(C#N)=C/c3cccn3-c3cc(Cl)cc(Cl)c3)n2)C(C)(C)C1
inactive: BT-549 > 100 µM | COLO 205 > 100 µM | EKVX > 100 µM | HCT-116 > 100 µM | HL-60 14.8 µM | Hs-578T 32.9 µM | KM12 > 100 µM | LOX IMVI 83 µM | M14 > 100 µM | MCF7 > 100 µM | NCI-H460 > 100 µM | OVCAR-3 > 100 µM | OVCAR-4 > 100 µM | OVCAR-8 12 µM | RPMI-8226 > 100 µM | SNB-75 17 µM | SR 1.42 µM | T47D > 100 µM | UACC-62 > 100 µM

Cn1c2ccccc2n2c3ccccc3c(=S)c(C#N)c12
inactive: BT-549 > 100 µM | COLO 205 > 10 µM | EKVX > 100 µM | HCT-116 > 100 µM | HL-60 > 100 µM | Hs-578T > 100 µM | KM12 > 100 µM | LOX IMVI > 100 µM | M14 > 100 µM | MCF7 > 100 µM | NCI-H460 > 100 µM | OVCAR-3 > 100 µM | OVCAR-4 > 100 µM | OVCAR-8 > 100 µM | RPMI-8226 > 100 µM | SNB-75 > 100 µM | SR > 100 µM | T47D > 10 µM | UACC-62 > 100 µM

Cn1c2c(c3ccccc31)C1CCCCCCC1C1C(=O)OC(=O)C21 (stereo unspecified)
inactive: COLO 205 40.6 µM | EKVX 45.5 µM | HL-60 30.8 µM | KM12 38.9 µM | LOX IMVI 22.8 µM | LXFL 529 39.7 µM | M14 88.1 µM | NCI-H460 36.8 µM | OVCAR-3 19.5 µM | OVCAR-4 53.8 µM | OVCAR-8 31.9 µM | RPMI-8226 23.1 µM | SNB-75 30.3 µM | SR 29 µM | UACC-62 59.6 µM

CN(C)c1ccc(/C=C/c2ccc(/C=C/c3ccc(N(C)C)cc3)cc2)cc1
inactive: COLO 205 > 100 µM | EKVX > 100 µM | HCT-116 83.9 µM | HL-60 > 100 µM | KM12 > 100 µM | LOX IMVI > 100 µM | LXFL 529 75.9 µM | M14 > 100 µM | NCI-H460 > 100 µM | OVCAR-3 > 100 µM | OVCAR-4 > 100 µM | OVCAR-8 > 100 µM | RPMI-8226 63.8 µM | SNB-75 > 100 µM | UACC-62 87.3 µM

CC1C(=O)O[C@H]2C1CC[C@@]1(C)[C@H](O)CC[C@@]13C[C@]2(O)OO3 (stereo partly specified)
inactive: COLO 205 > 100 µM | HCT-116 > 100 µM | HL-60 > 100 µM | LOX IMVI > 100 µM | LXFL 529 > 100 µM | M14 > 100 µM | NCI-H460 > 100 µM | OVCAR-3 > 100 µM | OVCAR-4 > 100 µM | OVCAR-8 > 100 µM | RPMI-8226 > 100 µM | SR > 100 µM | UACC-62 > 100 µM

From ChEMBL document CHEMBL1201862, “PubChem BioAssay data set” (2004)
